According to patent publication US12195427B2, “MASP-2 inhibitors and methods of use” (priority 2018, dated 2025):

Target: MASP-2 CCP2-SP (Homo sapiens (Human), UniProt O00187)
Experiment: MASP-2 co-crystallization, X-ray crystallography and structure analysis (H-bonds, van der Waals contacts);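 for Ligand-pharmacophore element distance, pharmacophore element C2: distance from averaged pharmacophore element to bound ligand; missing value means element absent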;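 for Ligand-pharmacophore element distance, pharmacophore element C3: distance from averaged pharmacophore element to bound ligand; missing value means element absent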;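 for Ligand-pharmacophore element distance, pharmacophore element C4: distance from averaged pharmacophore element to bound ligand; missing value means element absent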;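 for Ligand-pharmacophore element distance, pharmacophore element C5: distance from averaged pharmacophore element to bound ligand; missing value means element absent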
Set-up: van der Waals contact distance, MASP-2 HIS 483 atom CD2 / van der Waals contact distance, MASP-2 HIS 483 atom NE2 / van der Waals contact distance, SER 654 C to compound atom / van der Waals contact distance, SER 654 O to compound atom / van der Waals contact distance, TRP 655 C to compound atom / van der Waals contact distance, MASP-2 GLY 528 atom CA / van der Waals contact distance TRP 655 atom CZ3 / van der Waals contact distance TRP 655 atom N / van der Waals contact distance TRP 655 atom CE3 / van der Waals contact distance GLY 656 atom C / van der Waals contact distance GLY 656 atom CA / van der Waals contact distance GLY 656 atom O / van der Waals contact distance, MASP-2 TYR 607 atom CD1 / van der Waals contact distance, MASP-2 PRO 606 atom O / d(C3,CA1) / d(CA1,N1)2 / d(H4,O1) / d(H4,O2) / d(O1,O2) / d(CA1,O2) / d(CA6,O1) / d(CA6,O2) / d(CA1,C5) / d(O2,H3) / d(N2,C2) / d(CA5,N2) / d(N2,C4) / d(N2,C6) / d(N2,CA3) / d(N2,O3) / d(O4,H2): unit not given beside the values
Conditions: for Ligand-pharmacophore element distance, pharmacophore element C2 / Ligand-pharmacophore element distance, pharmacophore element C3 / Ligand-pharmacophore element distance, pharmacophore element C4 / Ligand-pharmacophore element distance, pharmacophore element C5 / Ligand-pharmacophore element distance, pharmacophore element C6 / Ligand-pharmacophore element distance, pharmacophore element C7 / Ligand-pharmacophore element distance, pharmacophore element CA1 / Ligand-pharmacophore element distance, pharmacophore element CA2 / Ligand-pharmacophore element distance, pharmacophore element CA3 / Ligand-pharmacophore element distance, pharmacophore element CA4 / Ligand-pharmacophore element distance, pharmacophore element CA5 / Ligand-pharmacophore element distance, pharmacophore element CA6: Table A4-1; for d(CA1,N1) / d(CA1,O1) / d(CA1,O2) / d(H4,O1) / d(H4,O2) / d(O1,O2) / d(CA1,C5) / d(CA1,O4) / d(O4,H2): Table A5-1 pharmacophore: distance between elements, S2/S1 region; for d(N2,C2) / d(N2,CA2) / d(O2,H3) / d(O2,N2): Table A5-2 pharmacophore distance, S3/S4 region; for a(O1, O2, H3) / a(O1, O2, N2) / a(O2, N2, C2) / a(O2, N2, CA2): Table A6-2 pharmacophore angle; for Pharmacophore torsion angle a(O1, O2, N2, CA2): Table A7-2; for Pharmacophore protein distance to MET_658 (first MET_658 column) / Pharmacophore protein distance to MET_658 (second MET_658 column) / Pharmacophore protein distance to GLY_528 / Pharmacophore protein distance to PHE_529 / Pharmacophore protein distance to PRO_608 / Pharmacophore protein distance to SER_611 / Pharmacophore protein distance to TRP_655: Table A8-6, nearest protein atom in cell to the left; for Pharmacophore protein distance to MET_658 (first MET_658 column): 6th residue column; for Pharmacophore protein distance to MET_658 (second MET_658 column): 9th residue column; for Pharmacophore protein distance to TRP_655: pharmacophore elements C6, CA3, O3, H1
Description: This example illustrates the preparation of recombinant MASP-2 protein, based on UniProt O00187, human mannan-binding lectin serine protease 2. Expression constructs for human MASP-2 CCP2-SP and CCP2-SP-6HIS were generated for recombinant expression in E. coli cells.
Typically, crystallization hits were obtained by screening against […] 96-well crystallization reagent kits (GRAS6, GRAS2, Hampton Research; MORPHEUS, Molecular Dimensions; Wizard 1&2 Cryo, Rigaku Reagents) and crystal growth was inspected by optical microscopy. Crystals were used directly or further optimized for X-ray diffraction. Crystals were captured with cryogenic loops and dipped into liquid nitrogen directly or cryoprotected with a 20% glycerol in crystallization formulation before flash-cooling in liquid nitrogen.
Thereafter crystals are transferred once or twice for soaking within the crystallization solution containing the MASP-2 inhibitor.
Crystals were diffracted with synchrotron X-rays of […] and X-ray diffraction datasets were collected at beamlines SSRL BL9-2, BL14-1, BL12-2 as well as ALS sector 5 using Dectris Pilatus and Eiger detectors. Structures were determined by molecular replacement using portions of the structure 1Q3X as search models and partially refined with Buster 2.10.2 or Refmac 5.8. […] When multiple ligand poses were observed, for instance arising from multiple molecules in the asymmetric unit or refined dual poses within the same molecule, only one pose was selected and analyzed.
LigPlot+ calls these ‘nonbonded contacts’ or ‘hydrophobic contacts’. Despite the name, there are atom pairings that include possible H-bonds. Thus, in some instances, the Table A2 also contains H-bond interactions.

[1] = Table A7-1, between pharmacophore elements of the bound compound
[2] = between pharmacophore elements of the bound compound

Chain of MASP-2 CCP2-SP (O00187 445-686): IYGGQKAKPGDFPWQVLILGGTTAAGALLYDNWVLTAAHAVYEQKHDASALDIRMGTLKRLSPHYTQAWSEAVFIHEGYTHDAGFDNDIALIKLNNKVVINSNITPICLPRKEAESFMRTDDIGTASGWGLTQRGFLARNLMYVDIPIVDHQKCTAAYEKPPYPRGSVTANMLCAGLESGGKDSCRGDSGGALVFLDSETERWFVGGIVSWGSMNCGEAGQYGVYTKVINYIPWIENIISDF
Chain of MASP-2 CCP2-SP (O00187 364-432 partner): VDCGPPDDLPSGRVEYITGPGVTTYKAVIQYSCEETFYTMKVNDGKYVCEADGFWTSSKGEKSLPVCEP

## C[C@H](NC(=O)[C@H](N)CCCc1ccccc1)C(=O)NCc1ccc(C(=N)N)cc1.Cl.Cl [1042_2]
  Ligand-pharmacophore element distance, pharmacophore element C2: 1.33
  Ligand-pharmacophore element distance, pharmacophore element C3: 0
  Ligand-pharmacophore element distance, pharmacophore element C4: 0
  Ligand-pharmacophore element distance, pharmacophore element C5: 0
  Ligand-pharmacophore element distance, pharmacophore element C6: 0
  Ligand-pharmacophore element distance, pharmacophore element C7: 0
  Ligand-pharmacophore element distance, pharmacophore element CA1: 0.5
  Ligand-pharmacophore element distance, pharmacophore element CA2: 0.72
  Ligand-pharmacophore element distance, pharmacophore element CA3: 0
  Ligand-pharmacophore element distance, pharmacophore element CA4: 0
  Ligand-pharmacophore element distance, pharmacophore element CA5: 0
  Ligand-pharmacophore element distance, pharmacophore element CA6: 0
  d(CA1,N1): 3.61
  d(CA1,O1): 4.47
  d(CA1,O2): 4.74
  d(H4,O1): 4.02
  d(H4,O2): 4.01
  d(O1,O2): 3.46
  d(N2,C2): 4.38
  d(N2,CA2): 7.44
  d(O2,H3): 5.89
  d(O2,N2): 2.86
  a(O1, O2, H3): 152.56
  a(O1, O2, N2): 148.96
  a(O2, N2, C2): 139.99
  a(O2, N2, CA2): 158.67
  Pharmacophore protein distance to MET_658 (first MET_658 column): 1.07
  Pharmacophore protein distance to MET_658 (second MET_658 column): 4.17
  Pharmacophore protein distance to GLY_528: 4.01
  Pharmacophore protein distance to PHE_529: 3.09
  Pharmacophore protein distance to PRO_608: 3.74
  Pharmacophore protein distance to SER_611: 2.54
  Pharmacophore protein distance to TRP_655: 3.27
Table A4-2, element H1
  Ligand-pharmacophore element distance, pharmacophore element H1: 0
Table A4-2, element H2
  Ligand-pharmacophore element distance, pharmacophore element H2: 0
Table A4-2, element H3
  Ligand-pharmacophore element distance, pharmacophore element H3: 5.3
Table A4-2, element H4
  Ligand-pharmacophore element distance, pharmacophore element H4: 3.52
Table A4-2, element N1
  Ligand-pharmacophore element distance, pharmacophore element N1: 1.61
Table A4-2, element N2
  Ligand-pharmacophore element distance, pharmacophore element N2: 1.72
Table A4-2, element O1
  Ligand-pharmacophore element distance, pharmacophore element O1: 3.1
Table A4-2, element O2
  Ligand-pharmacophore element distance, pharmacophore element O2: 0.75
Table A4-2, element O3
  Ligand-pharmacophore element distance, pharmacophore element O3: 0
Table A4-2, element O4
  Ligand-pharmacophore element distance, pharmacophore element O4: 0
Table A6-1 pharmacophore angle
  a(CA1, O1, O2): 116.12
  a(O1, O2, H4): 128.91
Table A6-1 pharmacophore angle, all compounds with protonatable center N1 except Methyl-amino-pyridine
  A(N1, CA1, O1) a): 164.17
[1]
  Pharmacophore torsion angle a(H4, O1, O2, H3): −9.33
  Pharmacophore torsion angle a(H4, O1, O2, N2): 44.33
  Pharmacophore torsion angle a(N1, CA1, O2, H4): 69.40
  Pharmacophore torsion angle a(O1, H4, O2, CA1): 68.80
  Pharmacophore torsion angle a(O1, O2, N2, C2): 151.54
[2]
  Pharmacophore torsion angle a(O1, O2, N2, CA2): 159.77

## C[C@H](NC(=O)[C@H](N)CCCc1ccccc1)C(=O)NCc1ccc(C(=N)N)cc1.Cl.Cl [1042_3]
  Ligand-pharmacophore element distance, pharmacophore element C2: 2.05
  Ligand-pharmacophore element distance, pharmacophore element C3: 0
  Ligand-pharmacophore element distance, pharmacophore element C4: 0
  Ligand-pharmacophore element distance, pharmacophore element C5: 0
  Ligand-pharmacophore element distance, pharmacophore element C6: 0
  Ligand-pharmacophore element distance, pharmacophore element C7: 0
  Ligand-pharmacophore element distance, pharmacophore element CA1: 0.5
  Ligand-pharmacophore element distance, pharmacophore element CA2: 1.65
  Ligand-pharmacophore element distance, pharmacophore element CA3: 0
  Ligand-pharmacophore element distance, pharmacophore element CA4: 0
  Ligand-pharmacophore element distance, pharmacophore element CA5: 0
  Ligand-pharmacophore element distance, pharmacophore element CA6: 0
  d(CA1,N1): 3.63
  d(CA1,O2): 4.54
  d(H4,O2): 4.90
  d(N2,C2): 3.55
  d(N2,CA2): 6.60
  d(O2,H3): 6.75
  d(O2,N2): 4.11
  a(O2, N2, C2): 129.44
  a(O2, N2, CA2): 145.75
  Pharmacophore protein distance to MET_658 (first MET_658 column): 2.74
  Pharmacophore protein distance to MET_658 (second MET_658 column): 4.20
  Pharmacophore protein distance to GLY_528: 2.99
  Pharmacophore protein distance to PHE_529: 2.42
  Pharmacophore protein distance to PRO_608: 4.06
  Pharmacophore protein distance to SER_611: 2.32
  Pharmacophore protein distance to TRP_655: 3.21

## C[C@H](NC(=O)[C@H]1C[C@@H](c2ccccc2)CCN1)C(=O)NCc1cc(Cl)ccc1O.Cl [1078_1]
  Ligand-pharmacophore element distance, pharmacophore element C2: 0.69
  Ligand-pharmacophore element distance, pharmacophore element C3: 0
  Ligand-pharmacophore element distance, pharmacophore element C4: 0
  Ligand-pharmacophore element distance, pharmacophore element C5: 0.4
  Ligand-pharmacophore element distance, pharmacophore element C6: 0
  Ligand-pharmacophore element distance, pharmacophore element C7: 0
  Ligand-pharmacophore element distance, pharmacophore element CA1: 1.58
  Ligand-pharmacophore element distance, pharmacophore element CA2: 0.48
  Ligand-pharmacophore element distance, pharmacophore element CA3: 0
  Ligand-pharmacophore element distance, pharmacophore element CA4: 0
  Ligand-pharmacophore element distance, pharmacophore element CA5: 0
  Ligand-pharmacophore element distance, pharmacophore element CA6: 0
  d(CA1,C5): 3.12
  d(CA1,O1): 4.56
  d(CA1,O2): 4.72
  d(CA1,O4): 2.75
  d(H4,O1): 2.29
  d(H4,O2): 2.61
  d(O1,O2): 3.05
  d(O4,H2): 0.97
  d(N2,C2): 1.48
  d(N2,CA2): 5.74
  d(O2,H3): 2.93
  d(O2,N2): 2.77
  a(O1, O2, H3): 141.96
  a(O1, O2, N2): 145.93
  a(O2, N2, C2): 121.70
  a(O2, N2, CA2): 154.68
  Pharmacophore protein distance to MET_658 (first MET_658 column): 2.97
  Pharmacophore protein distance to MET_658 (second MET_658 column): 3.50
  Pharmacophore protein distance to GLY_528: 3.66
  Pharmacophore protein distance to PHE_529: 3.30
  Pharmacophore protein distance to PRO_608: 3.85
  Pharmacophore protein distance to SER_611: 2.41
  Pharmacophore protein distance to TRP_655: 3.68
Table A6-1 pharmacophore angle
  a(C5, CA1, O1): 160.22
  a(CA1, O1, O2): 111.94
  a(CA1, O4, H2): 126.79
  a(O1, CA1, O4): 68.03
  a(O1, O2, H4): 103.21
[1]
  Pharmacophore torsion angle a(C5, CA1, O1, H4): 25.08
  Pharmacophore torsion angle a(H4, O1, O2, H3): −119.94
  Pharmacophore torsion angle a(H4, O1, O2, N2): −112.97
  Pharmacophore torsion angle a(O1, H4, O2, CA1): −60.12
  Pharmacophore torsion angle a(O1, O2, N2, C2): 138.25
[2]
  Pharmacophore torsion angle a(O1, O2, N2, CA2): 140.46

## C[C@H](NC(=O)[C@H]1C[C@@H](c2ccccc2)CCN1)C(=O)NCc1cc(Cl)ccc1O.Cl [1078_2]
  Ligand-pharmacophore element distance, pharmacophore element C2: 0.61
  Ligand-pharmacophore element distance, pharmacophore element C3: 0
  Ligand-pharmacophore element distance, pharmacophore element C4: 0
  Ligand-pharmacophore element distance, pharmacophore element C5: 0.46
  Ligand-pharmacophore element distance, pharmacophore element C6: 0
  Ligand-pharmacophore element distance, pharmacophore element C7: 0
  Ligand-pharmacophore element distance, pharmacophore element CA1: 1.55
  Ligand-pharmacophore element distance, pharmacophore element CA2: 0.61
  Ligand-pharmacophore element distance, pharmacophore element CA3: 0
  Ligand-pharmacophore element distance, pharmacophore element CA4: 0
  Ligand-pharmacophore element distance, pharmacophore element CA5: 0
  Ligand-pharmacophore element distance, pharmacophore element CA6: 0
  d(CA1,C5): 3.12
  d(CA1,O1): 4.69
  d(CA1,O2): 4.62
  d(CA1,O4): 2.75
  d(H4,O1): 2.19
  d(H4,O2): 2.44
  d(O1,O2): 3.25
  d(O4,H2): 0.97
  d(N2,C2): 1.44
  d(N2,CA2): 5.72
  d(O2,H3): 2.53
  d(O2,N2): 2.72
  a(O1, O2, H3): 141.98
  a(O1, O2, N2): 146.00
  a(O2, N2, C2): 128.07
  a(O2, N2, CA2): 155.89
Table A6-1 pharmacophore angle
  a(C5, CA1, O1): 159.94
  a(CA1, O1, O2): 109.26
  a(CA1, O4, H2): 128.74
  a(O1, CA1, O4): 65.74
  a(O1, O2, H4): 91.16
[1]
  Pharmacophore torsion angle a(C5, CA1, O1, H4): 38.04
  Pharmacophore torsion angle a(H4, O1, O2, H3): −132.87
  Pharmacophore torsion angle a(H4, O1, O2, N2): −119.25
  Pharmacophore torsion angle a(O1, H4, O2, CA1): −57.88
  Pharmacophore torsion angle a(O1, O2, N2, C2): 127.17
[2]
  Pharmacophore torsion angle a(O1, O2, N2, CA2): 137.47
